Assay results from patent US20130116263A1, “PAK INHIBITORS FOR THE TREATMENT OF CELL PROLIFERATIVE DISORDERS” (AFRAXIS, INC., priority 2011, published 2013).
Where two headings read alike, the source gives them in different places.

Columns and labels:
Type in all cases: biochemical
PAK2 (PAK65) = PAK2 (PAK65) (Homo sapiens, UniProt Q13177); assay: In vitro PAK inhibition assay (Z'-LYTE, SelectScreen), PAK2
In short: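 Z'-LYTE FRET readout using Ser/Thr 20 peptide (2 μM) with 0.29–6 ng PAK2 in 50 mM HEPES pH 7.5, 0.01% BRIJ-35, 10 mM MgCl2, 1 mM EGTA, 1% DMSO. Reaction and development each ran 60 min at room temperature.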

PAK4 = PAK4 (Homo sapiens, UniProt O96013); assay: In vitro PAK inhibition assay (Z'-LYTE, SelectScreen), PAK4
In short: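 Z'-LYTE FRET assay with 0.1-0.75 ng PAK-4 and 2 μM Ser/Thr 20 peptide in 50 mM HEPES pH 7.5, 10 mM MgCl2, 1 mM EGTA, 0.01% BRIJ-35, 1% DMSO; ATP near apparent Km. 1 h kinase reaction at room temperature, then 1 h development; IC50 from 10-point 3-fold titrations fitted to a sigmoidal dose-response.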

PAK1 = PAK1 (Homo sapiens, UniProt Q13153); assay: In vitro PAK inhibition assay (Z'-LYTE, SelectScreen), PAK1
In short: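 The PAK1 reaction on Ser/Thr 19 peptide runs 60 min at room temperature in 50 mM HEPES pH 7.5 with 10 mM MgCl2, 1 mM EGTA, 0.01% BRIJ-35; Z'-LYTE fluorescence read after 60 min development.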

PAK3 = PAK3 (Homo sapiens, UniProt O75914); assay: In vitro PAK inhibition assay (Z'-LYTE, SelectScreen), PAK3
In short: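 Z'-LYTE FRET format: PAK3 with Ser/Thr 20 peptide in 50 mM HEPES pH 7.5, 0.01% BRIJ-35, 10 mM MgCl2, 1 mM EGTA, 1% DMSO final. Kinase reaction 60 min at room temperature, then 60 min development and fluorescence read.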

Sequence of PAK3 (O75914 1-544 isoform O75914-2): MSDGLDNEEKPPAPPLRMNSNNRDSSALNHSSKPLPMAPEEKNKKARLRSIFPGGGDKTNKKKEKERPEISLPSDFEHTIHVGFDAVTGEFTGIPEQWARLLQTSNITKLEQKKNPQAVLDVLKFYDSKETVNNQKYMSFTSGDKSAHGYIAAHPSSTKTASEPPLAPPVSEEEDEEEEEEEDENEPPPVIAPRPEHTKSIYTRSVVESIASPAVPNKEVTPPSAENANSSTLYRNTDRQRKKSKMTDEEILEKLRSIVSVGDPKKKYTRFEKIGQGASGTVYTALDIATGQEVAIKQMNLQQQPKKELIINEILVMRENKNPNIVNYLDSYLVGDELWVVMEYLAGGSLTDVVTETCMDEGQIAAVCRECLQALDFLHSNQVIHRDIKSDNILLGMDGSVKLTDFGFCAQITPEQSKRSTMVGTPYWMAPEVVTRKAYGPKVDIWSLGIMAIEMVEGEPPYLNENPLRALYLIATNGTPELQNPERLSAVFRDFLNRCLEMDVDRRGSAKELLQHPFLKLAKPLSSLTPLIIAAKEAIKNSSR
Sequence of PAK2 (PAK65) (Q13177 whole entry): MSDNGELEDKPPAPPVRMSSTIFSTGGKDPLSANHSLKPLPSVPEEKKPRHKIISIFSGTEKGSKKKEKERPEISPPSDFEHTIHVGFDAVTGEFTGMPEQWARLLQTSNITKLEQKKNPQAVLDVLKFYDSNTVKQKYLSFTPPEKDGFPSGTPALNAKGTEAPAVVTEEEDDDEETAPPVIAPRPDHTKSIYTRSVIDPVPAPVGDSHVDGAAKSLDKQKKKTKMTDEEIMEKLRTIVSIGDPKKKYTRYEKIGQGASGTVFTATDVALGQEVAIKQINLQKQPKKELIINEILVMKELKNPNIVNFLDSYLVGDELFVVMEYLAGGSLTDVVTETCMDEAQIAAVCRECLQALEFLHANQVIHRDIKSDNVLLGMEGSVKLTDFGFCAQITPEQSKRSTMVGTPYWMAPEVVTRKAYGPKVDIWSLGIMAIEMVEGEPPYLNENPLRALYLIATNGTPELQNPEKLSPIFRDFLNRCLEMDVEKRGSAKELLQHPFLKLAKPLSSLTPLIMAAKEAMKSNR
Sequence of PAK4 (O96013 whole entry): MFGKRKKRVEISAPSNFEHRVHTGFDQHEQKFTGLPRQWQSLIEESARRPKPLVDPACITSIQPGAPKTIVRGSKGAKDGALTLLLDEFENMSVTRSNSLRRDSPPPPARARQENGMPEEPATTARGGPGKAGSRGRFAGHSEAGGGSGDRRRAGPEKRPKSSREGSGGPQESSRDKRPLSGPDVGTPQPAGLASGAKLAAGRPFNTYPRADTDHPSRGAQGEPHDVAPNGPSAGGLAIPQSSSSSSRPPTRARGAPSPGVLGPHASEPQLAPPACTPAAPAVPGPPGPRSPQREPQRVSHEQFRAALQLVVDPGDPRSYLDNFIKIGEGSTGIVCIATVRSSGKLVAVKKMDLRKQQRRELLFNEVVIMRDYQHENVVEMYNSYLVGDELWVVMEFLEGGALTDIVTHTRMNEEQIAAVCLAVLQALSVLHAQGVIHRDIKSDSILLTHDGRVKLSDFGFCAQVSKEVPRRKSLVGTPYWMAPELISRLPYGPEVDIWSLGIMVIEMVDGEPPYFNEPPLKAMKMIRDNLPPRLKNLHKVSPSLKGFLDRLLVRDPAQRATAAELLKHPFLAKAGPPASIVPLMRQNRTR
Sequence of PAK1 (Q13153 whole entry): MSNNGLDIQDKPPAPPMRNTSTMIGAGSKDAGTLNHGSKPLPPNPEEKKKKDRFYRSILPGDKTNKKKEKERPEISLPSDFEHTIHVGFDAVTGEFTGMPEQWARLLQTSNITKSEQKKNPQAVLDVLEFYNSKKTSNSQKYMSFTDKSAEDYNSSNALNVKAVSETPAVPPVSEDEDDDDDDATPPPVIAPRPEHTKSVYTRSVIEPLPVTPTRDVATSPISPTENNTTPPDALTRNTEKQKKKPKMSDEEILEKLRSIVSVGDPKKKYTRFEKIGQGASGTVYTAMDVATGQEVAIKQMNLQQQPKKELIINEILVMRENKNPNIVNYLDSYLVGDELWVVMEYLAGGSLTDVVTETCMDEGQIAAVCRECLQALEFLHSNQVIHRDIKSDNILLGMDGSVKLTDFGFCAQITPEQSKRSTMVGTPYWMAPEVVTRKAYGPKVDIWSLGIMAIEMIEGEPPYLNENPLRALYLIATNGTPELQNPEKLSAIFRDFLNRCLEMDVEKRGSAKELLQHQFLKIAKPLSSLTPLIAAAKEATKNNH

IC50 (PAK2 (PAK65); read-out: PAK2 IC50) | IC50 (PAK4) | IC50 (PAK1; read-out: PAK1 IC50) | IC50 (PAK3; read-out: PAK3 IC50) | Structure (SMILES) | IC50 (PAK2 (PAK65)) | IC50 (PAK1) | IC50 (PAK3; PAK3 IC50 (nM))
50 to 500 nM | > 5000 nM | 50 to 500 nM | 50 to 500 nM | CCn1c(=O)c(-c2ccc(-c3cncc(C)n3)cc2Cl)cc2cnc(NCC3CCC(N(C)C)CC3)nc21 (stereo not shown) [Example 132] | – | – | –
< 50 nM | > 5000 nM | < 50 nM | < 50 nM | CCn1c(=O)c(-c2ccc(-c3cncc(C)n3)cc2Cl)cc2cnc(N[C@H]3CC[C@H](CN(C)C)CC3)nc21 [Example 84, 6-(2-chloro-4-(6-methylpyrazin-2-yl)phenyl)-2-((trans-1,4)-4-((dimethylamino)methyl)cyclohexylamino)-8-ethylpyrido[2,3-d]pyrimidin-7(8H)-one] | – | – | –
< 50 nM | > 5000 nM | 50 to 500 nM | 50 to 500 nM | CCn1c(=O)c(-c2ccc(-c3nccnc3C)cc2Cl)cc2cnc(N[C@H]3CC[C@H](N)CC3)nc21 [Example 90, 2-(((trans-1,4)-4-aminocyclohexyl)amino)-6-(2-chloro-4-(3-methylpyrazin-2-yl)phenyl)-8-ethylpyrido[2,3-d]pyrimidin-7(8H)-one] | – | – | –
50 to 500 nM | > 5000 nM | < 50 nM | 50 to 500 nM | CCn1c(=O)c(-c2ccc(-c3cccnc3F)cc2Cl)cc2cnc(N[C@@H]3CCOC3)nc21 [Example 40] | – | – | –
50 to 500 nM | > 5000 nM | 50 to 500 nM | 500 to 5000 nM | CCn1c(=O)c(-c2ccc(-c3cncc(C)n3)cc2Cl)cc2cnc(N[C@H]3CC[C@@H](N)CC3)nc21 [Example 86] | – | – | –
50 to 500 nM | > 5000 nM | 50 to 500 nM | 50 to 500 nM | Cc1cncc(-c2ccc(-c3cc4cnc(N[C@H]5CCOC5)nc4n(C4CCNCC4)c3=O)c(Cl)c2)n1 [Example 106] | – | – | –
50 to 500 nM | > 5000 nM | 50 to 500 nM | 500 to 5000 nM | CCn1c(=O)c(-c2ccc(-c3ccn(C)n3)cc2Cl)cc2cnc(N[C@@H]3CCOC3)nc21 [Example 63] | – | – | –
50 to 500 nM | > 5000 nM | 50 to 500 nM | 50 to 500 nM | Cc1nccnc1-c1ccc(-c2cc3cnc(N[C@H]4CCOC4)nc3n(Cc3ccncc3)c2=O)c(Cl)c1 [Example 126] | – | – | –
50 to 500 nM | > 5000 nM | 50 to 500 nM | 500 to 5000 nM | CCn1c(=O)c(-c2ccc(-c3nccnc3C)cc2Cl)cc2cnc(NC3CCN(C)C3)nc21 (stereo not shown) [Example 78, 6-(2-chloro-4-(3-methylpyrazin-2-yl)phenyl)-8-ethyl-2-((1-methylpyrrolidin-3-yl)amino)pyrido[2,3-d]pyrimidin-7(8H)-one] | – | – | –
500 to 5000 nM | > 5000 nM | 500 to 5000 nM | > 5000 nM | CCn1c(=O)c(-c2ccc(-c3ccncc3)cc2Cl)cc2cnc(NC3CCOCC3)nc21 [Example 43] | – | – | –
50 to 500 nM | > 5000 nM | < 50 nM | < 50 nM | CCn1c(=O)c(-c2ccc(-c3cccnc3F)cc2Cl)cc2cnc(NC3CCOCC3)nc21 [Example 12] | – | – | –
500 to 5000 nM | > 5000 nM | 50 to 500 nM | 500 to 5000 nM | CCn1c(=O)c(-c2ccc(-c3cccnc3C)cc2Cl)cc2cnc(NC3CCOCC3)nc21 [Example 45] | – | – | –
< 50 nM | > 5000 nM | 50 to 500 nM | 50 to 500 nM | Cc1cncc(-c2ccc(-c3cc4cnc(N[C@H]5CCOC5)nc4n(CCN)c3=O)c(Cl)c2)n1 [Example 100] | – | – | –
< 50 nM | 500 to 5000 nM | < 50 nM | < 50 nM | Cc1cncc(-c2ccc(-c3cc4cnc(NC5CC5)nc4n([C@H]4CC[C@H](N)CC4)c3=O)c(Cl)c2)n1 [Example 112] | – | – | –
50 to 500 nM | > 5000 nM | 50 to 500 nM | 50 to 500 nM | Cc1cncc(-c2ccc(-c3cc4cnc(N[C@H]5CCOC5)nc4n(C4CCN(C)CC4)c3=O)c(Cl)c2)n1 [Example 108] | – | – | –

Structure (SMILES) | IC50 (PAK2 (PAK65); read-out: PAK2 IC50) | IC50 (PAK4) | IC50 (PAK1; read-out: PAK1 IC50) | IC50 (PAK3; read-out: PAK3 IC50) | IC50 (PAK2 (PAK65)) | IC50 (PAK1) | IC50 (PAK3; PAK3 IC50 (nM))
Cc1nc(-c2ccc(-c3cc4cnc(NC5CCOCC5)nc4n(Cc4ccccc4C(F)(F)F)c3=O)c(Cl)c2)no1 [Example 24] | – | > 5000 nM | – | – | 50 to 500 nM | 50 to 500 nM | 50 to 500 nM
